US20220380721A1, “METHOD FOR COUPLING ANTIBODY TO SURFACE OF CELL AND METHOD FOR APPLYING CELL COUPLED WITH THE ANTIBODY” (Xiamen Nuokangde Biological Technology Co., Ltd., priority 2019, published 2022)

Tested on: NK92 cells
Assay: Metabolic incorporation of azido sialic acid in NK92 cells, detected with FITC-Stau by confocal laser microscope
Assay type: cell-based
Conditions: NK92 cells cultured with 100 μM 9N3-SA for 24-48 hours; FITC-Stau 100 μM, 37° C., 2-4 hours; compared with cells not modified
Protocol: NK92 cells normally cultured are distributed into a 24-well plate and then cultured in a NK92 cell medium containing 9N3-SA with a final concentration of 100 μM for 24-48 hours. The NK92 cells are washed by PBS for 3 times, and the NK92 cell medium containing 9N3-SA is then replaced by a normal NK92 medium to obtain NK92 cells modified with the azide groups. In order to verify that the NK92 cells have been modified with the azide groups, in this embodiment, Fluorescein-Stau (FITC-Stau) (as shown in FIG. 3), a ligand molecule connected to fluorescein and able to orthogonally react with the azide groups, is synthesized. The FITC-Stau is added into a medium of the NK92 cell modified with the azide groups with a final concentration of 100 μM, incubated at 37° C. for 2-4 hours, and washed with PBS for 3 times, and fluorescence on the cell surface is then observed by a confocal laser microscope.

## COC(=O)[C@@]1(O)C[C@@H](O)[C@@H](NC(C)=O)C([C@H](O)[C@H](O)CN=[N+]=[N-])O1 (stereo partly shown) [9N3-SA]
  fluorescence on the cell surface after FITC-Stau labeling: strong fluorescence signal
